Results as given in a compilation of properties of binary mixtures (doi:10.1016/j.molliq.2020.114841).

Test: xn = mol fraction of the nth substance listed
Settings: 101.3 kPa

CS(C)=O + CCOCC[n+]1ccn(CCC#N)c1.O=S(=O)([N-]S(=O)(=O)C(F)(F)F)C(F)(F)F
x2 = 0
Settings	electrical conductivity [S/m]	viscosity [mPa·s]
293.15 K	0.0006	2.48
303.15 K	0.0009	2.025
313.15 K	0.0012	1.619
323.15 K	0.0015	1.433

CS(C)=O + COCCOCCn1cc[n+](CCC#N)c1.O=S(=O)([N-]S(=O)(=O)C(F)(F)F)C(F)(F)F
x2 = 0
Settings	electrical conductivity [S/m]	viscosity [mPa·s]
293.15 K	0.0006	2.479
303.15 K	0.0009	2.025
313.15 K	0.0012	1.619
323.15 K	0.0015	1.433

CCOCC[n+]1ccn(CCC#N)c1.O=S(=O)([N-]S(=O)(=O)C(F)(F)F)C(F)(F)F + CS(C)=O
Settings	electrical conductivity, 293.15 K [S/m]	electrical conductivity, 303.15 K [S/m]	electrical conductivity, 313.15 K [S/m]	electrical conductivity, 323.15 K [S/m]	viscosity, 293.15 K [mPa·s]	viscosity, 303.15 K [mPa·s]	viscosity, 313.15 K [mPa·s]	viscosity, 323.15 K [mPa·s]
x1 = 0.0989	0.0011	0.0013	0.0016	–	8.21	5.53	4.312	–
x1 = 0.1981	0.004	0.0048	0.0061	–	10.18	7.07	5.24	–
x1 = 0.2776	0.0096	0.0117	0.0152	0.0204	16.76	11.64	8.48	6.42
x1 = 0.3971	0.0179	0.0218	0.0282	–	25.7	17	12.01	–
x1 = 0.5029	0.0284	0.0351	0.0457	–	40.9	28	18.99	–
x1 = 0.597	–	0.0477	0.063	0.0866	–	38.6	26.33	18.01
x1 = 0.721	0.0472	–	0.0763	–	72.2	–	28.66	–
x1 = 0.798	–	0.0985	0.13	0.188	–	57.8	36.8	28.6
x1 = 0.89	–	0.0843	0.119	0.165	–	124.2	78.2	56.6
x1 = 1	0.057	0.0705	0.0957	0.14	401	235.6	146.2	105

COCCOCCn1cc[n+](CCC#N)c1.O=S(=O)([N-]S(=O)(=O)C(F)(F)F)C(F)(F)F + CS(C)=O
Settings	electrical conductivity, 293.15 K [S/m]	electrical conductivity, 303.15 K [S/m]	electrical conductivity, 313.15 K [S/m]	electrical conductivity, 323.15 K [S/m]	viscosity, 293.15 K [mPa·s]	viscosity, 303.15 K [mPa·s]	viscosity, 313.15 K [mPa·s]	viscosity, 323.15 K [mPa·s]
x1 = 0.0989	0.002	0.0023	0.0028	0.0034	6.1	4.244	3.145	2.453
x1 = 0.1981	–	0.0077	0.0094	–	–	5.65	4.14	–
x1 = 0.2776	0.0093	–	0.0144	0.0193	13.52	–	6.42	5
x1 = 0.3971	0.0202	0.0243	0.031	0.043	19.5	13.05	8.55	6.4
x1 = 0.5029	0.0321	–	0.0518	0.0698	39.8	–	16.92	12.64
x1 = 0.597	0.0411	0.051	0.0672	0.0919	53.9	33.04	22.38	16.15
x1 = 0.721	0.0589	0.0732	0.0977	0.134	64.3	36.5	24.89	17.98
x1 = 0.798	0.0885	0.111	–	–	90.8	49.7	–	–
x1 = 0.89	0.0746	–	–	0.175	145.2	–	–	37.5
x1 = 1	0.0654	0.0831	0.112	0.158	296	169	103.2	74.6
